# Experiments:
# [1] = from 5 to 95% RH
# Method: Moisture sorption/desorption data were collected on a VTI SGA-100 Vapor Sorption Analyzer. NaCl and PVP were used as calibration standards. Samples were not dried prior to analysis. Sorption and desorption data were collected over a range from 5% to 95% RH at 10% RH increments under a nitrogen purge. The equilibrium criterion used for analysis was less than 0.0100% weight change in 5 minutes with a maximum equilibration time of 3 hours. Data were not corrected for the initial moisture content of the samples.
# [2] = Physical stability analysis of sesquifumaric acid salt forms (drying, heating); assay type: physicochemical
structure (smiles),measurement,setting,value
"CC(C)N(C(=O)c1cc(F)ccc1Oc1cncnc1N1CC2(CCN(CC3CCC(NS(C)(=O)=O)CC3)CC2)C1)C(C)C.CC(C)N(C(=O)c1cc(F)ccc1Oc1cncnc1N1CC2(CCN(CC3CCC(NS(C)(=O)=O)CC3)CC2)C1)C(C)C.O.O.O=C(O)/C=C/C(=O)O.O=C(O)/C=C/C(=O)O.O=C(O)/C=C/C(=O)O (stereo not shown) [Form A, 5-fluoro-N,N-diisopropyl-2-((4-(7-(((1r,4r)-4-(methylsulfonamido)cyclohexyl)methyl)-2,7-diazaspiro[3.5]nonan-2-yl)pyrimidin-5-yl)oxy)benzamide sesquifumaric acid salt monohydrate]",DVS weight gain,[1],0.92%
same,Observation (weight change),[2]; 70° C. vacuum 3 days,no weight change
same,Result (solid form after physical stability stress),[2]; 70° C. vacuum 3 days,Form A + peaks
same,Result (solid form after physical stability stress),"[2]; 95° C., under N2, 2 days",Form A
same,Observation (LOD),[2]; 105° C. 3 days,20% LOD
same,Result (solid form after physical stability stress),[2]; 105° C. 3 days,Form A
same,Observation (weight change),[2]; ambient vacuum 3 days,no weight change
same,Result (solid form after physical stability stress),[2]; ambient vacuum 3 days,Form A
same,Form change in variable temperature (VT)-XRPD,"[2]; heating, XRPD pattern at 165° C.",No form change observed
same,Changes upon vacuum drying or heating,[2]; vacuum drying or heating,No changes

# Source: patent publication US12312359B2 (Vitae Pharmaceuticals, LLC, priority 2016, dated 2025)
